Assay results: patent US20100160255A1, “SPIRO-CYCLIC COMPOUND” (Takeda Pharmaceutical Company Limited, priority 2005, published 2010)
Where two headings read alike, the source gives them in different places.

How the values were obtained:
[1] = biological target: T1, human ACC1 (Homo sapiens, UniProt Q13085); test: ACC1 inhibitory activity (malachite green absorbance assay, recombinant enzyme); type: biochemical
T1 construct: made in house; host or cells: SF-9 insect cells, recombinant baculovirus BAC-ACC1
Experimental: The ACC1 inhibitory activity of the compound of the present invention was evaluated by the following method.
(§1) Human ACC1 gene was cloned by PCR using human liver cDNA library (Clontech) as a template, and Primer 1 and Primer 2 shown below. Primer 1 and Primer 2 were prepared by adding recognition sequence of restriction enzymes SalI and NotI based on the information of the base sequence (Genbank Accession U19822) of human ACC1 gene.
(§2) PCR was performed using Pyrobest DNA polymerase (TAKARA BIO INC.). The obtained PCR product was cloned to pT7 Blue vector (Novagen) which was, after confirmation of the base sequence, digested with restriction enzymes SalI and NotI. The obtained DNA fragment was inserted into pFAST-BacHTc (Invitrogen) digested with restriction enzymes SalI and NotI to give expression plasmid ACC1/pFAST-BacHTc.
Using the expression plasmid and BAC-TO-BAC Baculovirus Expression System (Invitrogen), virus stock BAC-ACC1 of recombinant Baculovirus was prepared.
(§3) SF-9 cells (Invitrogen) were sown at 1×10^6 cells/mL to insect cell culture medium (1 L, Sf-900II SFM medium (Invitrogen) containing 10% fetal bovine serum (Trace), 50 mg/L gentamicin (Invitrogen) and 0.1% Pluronic F-68 (Invitrogen)), and shaking culture was performed using a 2 L volume Erlenmeyer flask at 27° C., 100 rpm.
After culturing for 24 hr, the recombinant Baculovirus BAC-ACC1 (10 mL) was added, and the mixture was further cultured for 3 days. The culture medium was centrifuged at 1000×g for 5 min to give virus-infected cells. The infected cells were washed with phosphate buffered saline (Invitrogen) and centrifuged under the same conditions, and the obtained cells were cryopreserved at −80° C.
The cryopreserved cells were thawed in ice, suspended in 25 mM HEPES buffer (100 mL, pH 7.5) containing 10% Glycerol, 0.13 M NaCl, 1 mM EDTA, 25 mM sodium β-glycerophosphate, 1 mM sodium orthovanadate, added with Complete Protease Inhibitor (Boehringer). The obtained suspension was homogenized 3 times with a Polytron homogenizer (Kinematica) at 20,000 rpm for 30 seconds. The obtained cell disrupt solution was clarified by centrifugation at 185700×g for 50 min and filtrated using a 0.45 μm filter. The filtrate was passed through a column packed with Ni-NTA Super Flow Gel (QIAGEN, 12 mL) at a flow rate of about 5 mL/min. The column was washed with buffer A (50 mM HEPES containing 0.3M NaCl, pH 7.5), further washed with buffer A containing 20 mM Imidazole, and eluted with buffer A containing 100 mM Imidazole. The eluate was concentrated with Vivaspin 20 (Vivascience) having a molecular weight cut off of 30 K. The obtained concentrate was dialyzed using Sephadex G-25 (Amersham Bioscience K.K., 358 mL) equilibrated with 50 mM HEPES (pH7.5) containing 10 mM MgCl2, 2 mM dithiothreitol, 10 mM tripotassium citrate and 0.3M NaCl. The dialysate was concentrated with Vivaspin 20 (Vivascience) having a molecular weight cut off of 30 K and the concentrate was filtered through a 0.22 μm filter to give ACC1. The obtained ACC1 was cryopreserved at −80° C.
ACC1 (0.93 mg/ml) obtained in (2) above was diluted to a concentration of 8 μg/ml with an enzyme reaction buffer (50 mM HEPES (pH7.5), 10 mM MgCl2, 10 mM tripotassium citrate, 2 mM dithiothreitol, 0.75 mg/ml fatty acid free BSA), and added to each well of a 384 well assay plate (Nunc 265196) by 10 μl. […]

[2] = biological target: T2, human ACC2 (Homo sapiens, UniProt O00763); test: ACC2 inhibitory activity (malachite green absorbance assay, recombinant ACC2(Nd)); type: biochemical
T2 construct: made in house; host or cells: SF-9 insect cells, recombinant baculovirus BAC-ACC2(Nd)
Experimental: The ACC2 inhibitory activity of the compound of the present invention was evaluated by the following method.
as §1, with “ACC2” for “ACC1”, “skeletal muscle” for “liver”, “XbaI” for “NotI”, “U89344)” for “U19822)”
as §2, with “XbaI.” for “NotI.”, “pFAST-BacHTa” for “pFAST-BacHTc”, “XbaI” for “NotI”, “ACC2/pFAST-BacHTa.” for “ACC1/pFAST-BacHTc.”
A plasmid for expression of ACC2 free of mitochondrial targeting sequence was prepared by PCR using the expression plasmid as a template, and Primer 3 and Primer 4 shown below.
as §2, with “AflII.” for “NotI.”, “pFAST-BacHTa” for “pFAST-BacHTc”, “AflII” for “NotI”, “ACC2mito7/pFAST-BacHTa.” for “ACC1/pFAST-BacHTc.”
Using the expression plasmid and BAC-TO-BAC Baculovirus Expression System (Invitrogen), virus stock BAC-ACC2 of recombinant Baculovirus (N terminal deletion (hereinafter Nd)) was prepared.
as §3, with “0.5×10^6” for “1×10^6”, “(2” for “(1”, “Wave Bioreactor (Wave) under the conditions of” for “2 L volume Erlenmeyer flask at”, “20 rpm, rocking angle of 6° and oxygen concentration of 30%.” for “100 rpm.”
On day 4 of the culture, 3 L of an insect cell culture medium was added, the rocking angle was set to 8°, and the cells were further cultured. On day 5 of the culture, the recombinant Baculovirus BAC-ACC2(Nd) (100 mL) was added, 5 L of the insect cell culture medium was further added, the rocking angle was set to 11°, and the cells were cultured for 3 days. The culture medium was centrifuged at 1000×g for 10 min to give virus-infected cells. The infected cells were washed with phosphate buffered saline (Invitrogen) and centrifuged under the same conditions, and the obtained cells were cryopreserved at −80° C.
The cryopreserved cells were thawed in ice, suspended in 25 mM HEPES buffer (900 mL, pH 7.5) containing 10% Glycerol, 0.13 M NaCl, 1 mM EDTA, 25 mM sodium β-glycerophosphate, 1 mM sodium orthovanadate, added with Complete Protease Inhibitor (Boehringer). The obtained suspension was homogenized 3 times with a Polytron homogenizer (Kinematica) at 20,000 rpm for 30 seconds. The obtained cell disrupt solution was clarified by centrifugation at 31000×g for 60 min and filtrated using a 0.45 μm filter. The filtrate was passed through a column packed with Ni-NTA Super Flow Gel (QIAGEN, 60 mL) at a flow rate of about 5 mL/min. The column was washed with buffer A (50 mM HEPES containing 0.3M NaCl, pH 7.5), further washed with buffer A containing 20 mM Imidazole, and eluted with buffer A containing 100 mM Imidazole. The eluate was concentrated with Vivaspin 20 (Vivascience) having a molecular weight cut off of 30 K. The obtained concentrate was dialyzed against 50 mM HEPES (pH7.5) containing 10 mM MgCl2, 2 mM dithiothreitol, 10 mM tripotassium citrate and 0.3M NaCl. The dialysate was filtered through a 0.22 μm filter to give ACC2(Nd). The obtained ACC2(Nd) was cryopreserved at −80° C. […]

[3] = Experimental Example 3, same manner as Experimental Example 1, read-out: IC50 values (ACC1 inhibitory activity)
[4] = Table 8, recombinant human ACC1, 30° C., absorbance 620 nm, read-out: IC50 (ACC1 inhibitory activity)
[5] = Experimental Example 4, same manner as Experimental Example 2, read-out: IC50 values (ACC2 inhibitory activity)
[6] = Table 9, recombinant human ACC2(Nd), N terminal deletion, 30° C., absorbance 620 nm, read-out: IC50 (ACC2 inhibitory activity)

T2 sequence (O00763 117-2458 limits assumed): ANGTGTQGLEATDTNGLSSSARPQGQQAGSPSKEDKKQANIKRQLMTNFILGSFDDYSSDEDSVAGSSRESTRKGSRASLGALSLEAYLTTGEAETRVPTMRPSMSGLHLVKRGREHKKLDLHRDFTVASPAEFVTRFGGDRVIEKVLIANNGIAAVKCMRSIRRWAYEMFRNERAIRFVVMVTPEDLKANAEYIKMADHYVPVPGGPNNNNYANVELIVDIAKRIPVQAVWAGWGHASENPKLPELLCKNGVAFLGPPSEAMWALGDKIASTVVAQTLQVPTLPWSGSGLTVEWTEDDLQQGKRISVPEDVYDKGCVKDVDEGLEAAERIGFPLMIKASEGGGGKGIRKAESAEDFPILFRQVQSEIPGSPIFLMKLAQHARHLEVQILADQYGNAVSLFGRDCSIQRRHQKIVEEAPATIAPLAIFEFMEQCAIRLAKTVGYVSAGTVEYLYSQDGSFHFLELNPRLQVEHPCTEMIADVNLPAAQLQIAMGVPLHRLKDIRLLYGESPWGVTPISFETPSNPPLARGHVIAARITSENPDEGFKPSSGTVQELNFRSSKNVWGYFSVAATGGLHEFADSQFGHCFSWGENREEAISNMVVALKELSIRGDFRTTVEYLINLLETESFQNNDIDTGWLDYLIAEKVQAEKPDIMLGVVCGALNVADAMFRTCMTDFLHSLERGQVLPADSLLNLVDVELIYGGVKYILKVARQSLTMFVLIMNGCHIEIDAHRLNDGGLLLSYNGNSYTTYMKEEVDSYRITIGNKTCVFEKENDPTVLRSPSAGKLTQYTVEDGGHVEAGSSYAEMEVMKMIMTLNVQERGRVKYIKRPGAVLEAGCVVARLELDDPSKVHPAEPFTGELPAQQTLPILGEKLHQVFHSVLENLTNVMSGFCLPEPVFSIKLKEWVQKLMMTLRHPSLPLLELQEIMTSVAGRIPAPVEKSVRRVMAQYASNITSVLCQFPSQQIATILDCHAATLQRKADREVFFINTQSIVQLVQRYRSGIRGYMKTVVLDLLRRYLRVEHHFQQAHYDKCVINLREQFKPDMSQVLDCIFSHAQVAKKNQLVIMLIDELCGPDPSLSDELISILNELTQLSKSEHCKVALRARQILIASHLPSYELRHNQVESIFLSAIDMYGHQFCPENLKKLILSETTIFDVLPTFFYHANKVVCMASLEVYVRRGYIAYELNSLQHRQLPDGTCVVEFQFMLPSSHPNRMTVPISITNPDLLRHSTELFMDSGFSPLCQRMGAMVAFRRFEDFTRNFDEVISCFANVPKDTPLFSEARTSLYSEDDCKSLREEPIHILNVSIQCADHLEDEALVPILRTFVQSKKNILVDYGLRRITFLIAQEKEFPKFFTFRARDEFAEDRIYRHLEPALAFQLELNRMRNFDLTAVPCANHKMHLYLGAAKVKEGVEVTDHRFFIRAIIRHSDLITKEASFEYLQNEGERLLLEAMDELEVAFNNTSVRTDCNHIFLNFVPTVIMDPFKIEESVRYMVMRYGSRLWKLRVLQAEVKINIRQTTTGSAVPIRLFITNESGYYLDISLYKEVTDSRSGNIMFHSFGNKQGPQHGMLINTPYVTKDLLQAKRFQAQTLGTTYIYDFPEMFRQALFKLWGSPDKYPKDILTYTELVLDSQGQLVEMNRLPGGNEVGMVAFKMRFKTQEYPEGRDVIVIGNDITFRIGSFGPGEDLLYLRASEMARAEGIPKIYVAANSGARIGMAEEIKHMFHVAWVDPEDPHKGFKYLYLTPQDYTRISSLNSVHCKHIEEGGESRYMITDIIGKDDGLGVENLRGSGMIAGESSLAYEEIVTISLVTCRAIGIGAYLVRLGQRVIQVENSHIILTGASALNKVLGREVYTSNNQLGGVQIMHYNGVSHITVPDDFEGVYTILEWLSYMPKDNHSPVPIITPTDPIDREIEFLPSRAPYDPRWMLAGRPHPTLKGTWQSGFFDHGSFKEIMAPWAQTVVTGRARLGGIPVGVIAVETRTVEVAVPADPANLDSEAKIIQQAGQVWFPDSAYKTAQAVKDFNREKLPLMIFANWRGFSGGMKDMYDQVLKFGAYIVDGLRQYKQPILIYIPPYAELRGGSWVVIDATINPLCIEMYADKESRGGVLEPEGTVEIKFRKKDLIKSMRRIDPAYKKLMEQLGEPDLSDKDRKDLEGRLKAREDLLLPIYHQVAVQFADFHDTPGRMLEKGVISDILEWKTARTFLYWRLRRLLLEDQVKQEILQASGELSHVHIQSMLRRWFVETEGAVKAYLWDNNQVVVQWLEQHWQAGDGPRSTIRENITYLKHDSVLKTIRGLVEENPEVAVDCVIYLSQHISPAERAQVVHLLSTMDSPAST

Structure (SMILES) | IC50 [1, 3] | IC50 [1, 4] | IC50 [2, 5] | IC50 [2, 6]
CCNC(=O)Nc1sc2ccccc2c1C(=O)N1CCC(N2CCCC3(C2)CC(C)(C)OC3=O)CC1 (centres unmarked) [Example 36, N-(3-{[4-(3,3-Dimethyl-1-oxo-2-oxa-7-azaspiro[4.5]dec-7-yl)piperidin-1-yl]carbonyl}-1-benzothien-2-yl)-N′-ethylurea] | ≤ 100 nM | 79 nM | ≤ 10 nM | 8 nM
CC1(C)CC2(CCCN(C3CCN(C(=O)c4cc(-c5cccnc5)nc5ccccc45)CC3)C2)C(=O)O1 (centres unmarked) [Example 92, 3,3-dimethyl-7-{1-[(2-(pyridin-3-yl)quinolin-4-yl)carbonyl]piperidin-4-yl}-2-oxa-7-azaspiro[4.5]decan-1-one] |  | 4800 nM |  | 110 nM
CC(=O)c1cccc(-c2cc(C(=O)N3CCC(N4CCCC5(C4)CC(C)(C)OC5=O)CC3)cc(-c3cccnc3)c2)c1 (centres unmarked) [Example 133, 7-{1-[(3′-acetyl-5-(pyridin-3-yl)biphenyl-3-yl)carbonyl]piperidin-4-yl]-3,3-dimethyl-2-oxa-7-azaspiro[4.5]decan-1-one] |  | 3300 nM |  | 120 nM
CC1(C)CC2(CN(C3CCN(C(=O)c4c5ccccc5cc5ccccc45)CC3)CCN2)C(=O)O1 (centres unmarked) [Example 153, 9-[1-(9-anthrylcarbonyl)piperidin-4-yl]-3,3-dimethyl-2-oxa-6,9-diazaspiro[4.5]decan-1-one] |  | 1600 nM |  | 76 nM
CCNC(=O)Nc1sc(-c2ccccn2)cc1C(=O)N1CCC(N2CCCC3(C2)CC(C)(C)OC3=O)CC1 (centres unmarked) [Example 179, 1-(3-{[4-(3,3-dimethyl-1-oxo-2-oxa-7-azaspiro[4.5]dec-7-yl)piperidin-1-yl]carbonyl}-5-(pyridin-2-yl)-2-thienyl)-3-ethylurea] | ≤ 100 nM | 140 nM | ≤ 10 nM | 9 nM
CCNC(=O)Nc1sc(-c2ccc(C(=O)O)cc2)cc1C(=O)N1CCC(N2CCCC3(C2)CC(C)(C)OC3=O)CC1 (centres unmarked) [Example 190, 4-(4-{[4-(3,3-dimethyl-1-oxo-2-oxa-7-azaspiro[4.5]dec-7-yl)piperidin-1-yl]carbonyl}-5-[(ethylcarbamoyl)amino]-2-thienyl)benzoic acid] | ≤ 100 nM | 80 nM | ≤ 10 nM | 9 nM
CCN1C(=O)OC2(CCCN(C3CCN(C(=O)c4c(NC(N)=O)sc5ccccc45)CC3)C2)C1=O (centres unmarked) [Example 229, 1-(3-{[4-(3-ethyl-2,4-dioxo-1-oxa-3,7-diazaspiro[4.5]dec-7-yl)piperidin-1-yl]carbonyl}-1-benzothien-2-yl)urea] |  | 290 nM |  | 49 nM
CCNC(=O)Nc1sc(-c2ccccn2)cc1C(=O)N1CCC(N2CCCC3(C2)OC(=O)N(CC)C3=O)CC1 (centres unmarked) [Example 245, 1-ethyl-3-(3-{[4-(3-ethyl-2,4-dioxo-1-oxa-3,7-diazaspiro[4.5]dec-7-yl)piperidin-1-yl]carbonyl}-5-(pyridin-2-yl)-2-thienyl)urea] |  | 980 nM |  | 46 nM

Second part, the compound after the results:

IC50 [1, 3] | IC50 [1, 4] | IC50 [2, 5] | IC50 [2, 6] | Structure (SMILES)
 | 1400 nM |  | 89 nM | CCNC(=O)Nc1cnc(-c2ccccc2)cc1C(=O)N1CCC(N2CCCC3(C2)CC(C)(C)OC3=O)CC1 (centres unmarked) [Example 301, N-(4-{[4-(3,3-dimethyl-1-oxo-2-oxa-7-azaspiro[4.5]dec-7-yl)piperidin-1-yl]carbonyl}-6-phenylpyridin-3-yl)-N′-ethylurea]
 | 400 nM |  | 31 nM | CCNC(=O)Nc1sc2ccccc2c1C(=O)N1CCC(N2CCCC3(CC(=O)NC3=O)C2)CC1 (centres unmarked) [Example 311, N-(3-{[4-(1,3-dioxo-2,7-diazaspiro[4.5]dec-7-yl)piperidin-1-yl]carbonyl}-1-benzothien-2-yl)-W-ethylurea]
 | 200 nM |  | 19 nM | CCNC(=O)Nc1sc2ccccc2c1C(=O)N1CCC(N2CCCC3(C2)OC(=O)N(CC)C3=O)CC1 (centres unmarked) [Example 327, N-ethyl-N′-(3-{[4-(3-ethyl-2,4-dioxo-1-oxa-3,7-diazaspiro[4.5]dec-7-yl)piperidin-1-yl]carbonyl}-1-benzothien-2-yl)urea]
 | 260 nM |  | 31 nM | CC(C)N1C(=O)OC2(CCCN(C3CCN(C(=O)c4c(NC(N)=O)sc5ccccc45)CC3)C2)C1=O (centres unmarked) [Example 335, N-(3-{[4-(3-isopropyl-2,4-dioxo-1-oxa-3,7-diazaspiro[4.5]dec-7-yl)piperidin-1-yl]carbonyl}-1-benzothien-2-yl)urea]
 | 300 nM |  | 45 nM | CCN1CCC2(CCCN(C3CCN(C(=O)c4c(NC(=O)NC)sc5ccccc45)CC3)C2)C1=O (centres unmarked) [Example 339, N-(3-{[4-(2-ethyl-1-oxo-2,7-diazaspiro[4.5]dec-7-yl)piperidin-1-yl]carbonyl}-1-benzothien-2-yl)-N′-methylurea]
